The numbers were not newly measured in US11059813B2, “Polymorphic forms of Dasatinib” (BIOCON LIMITED, priority 2017, dated 2021), which cites them from elsewhere.

For one series, the system named is rat. The following applies: in vivo, po.
For series [1] the following is noted: co-former alone.
The conditions of series [2]: co-former alone; for thermal stability: melting points greater than 300° C.

In the case of `Nc1ncnc2nc[nH]c12` [Adenine], the LD50 value in the series on rat is 227 mg/kg. Also, the hygroscopicity result in series [1] is on record as “non-hygroscopic”. Besides, in series [2], the chemical stability result was “chemically stable” and the thermal stability entry is “thermally stable”.

On to `Cc1nc(Nc2ncc(C(=O)Nc3c(C)cccc3Cl)s2)cc(N2CCN(CCO)CC2)n1` [Dasatinib, N-(2-chloro-6-methylphenyl)-2-[[6-[4-(2-hydroxyethyl)-1-piperazinyl]-2-methyl-4-pyrimidinyl]amino]-5-thiazole carboxamide], for which the solubility in water result is “poor”.

Regarding `Cc1c[nH]c(=O)[nH]c1=O` [Thymine], the LD50 value in the series on rat is 3500 mg/kg. For the same compound, in series [1], the hygroscopicity result is “non-hygroscopic”. Further, in series [2], the chemical stability result is reported as “chemically stable” and the thermal stability entry is recorded as “thermally stable”.
